The values that follow come from ChEMBL document CHEMBL1201862, “PubChem BioAssay data set” (2004).

Experiment [1] addresses T1, Sentrin-specific protease 8 (Homo sapiens, UniProt Q96LD8).
T1 sequence (Q96LD8 whole entry): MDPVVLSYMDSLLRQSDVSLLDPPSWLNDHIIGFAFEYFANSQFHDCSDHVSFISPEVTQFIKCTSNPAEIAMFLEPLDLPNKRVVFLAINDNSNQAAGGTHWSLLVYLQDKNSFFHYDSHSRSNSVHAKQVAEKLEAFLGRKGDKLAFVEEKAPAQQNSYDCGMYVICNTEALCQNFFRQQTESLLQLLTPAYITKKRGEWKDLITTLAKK
Kind of experiment: SENP8 protease inhibitors, SAR follow-up, biochemical, luminescence (AID 504501). The class given is functional.

Experiment [2] deals with T2, Caspase-3 (Homo sapiens, UniProt P42574).
T2 sequence (P42574 whole entry): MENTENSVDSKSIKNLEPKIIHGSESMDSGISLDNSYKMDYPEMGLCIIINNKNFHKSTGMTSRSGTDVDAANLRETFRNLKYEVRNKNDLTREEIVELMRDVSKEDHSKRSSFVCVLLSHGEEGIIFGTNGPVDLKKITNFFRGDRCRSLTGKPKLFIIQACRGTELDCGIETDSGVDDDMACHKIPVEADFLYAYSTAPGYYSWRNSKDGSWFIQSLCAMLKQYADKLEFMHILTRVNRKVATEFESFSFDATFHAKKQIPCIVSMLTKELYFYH
Kind of experiment: caspase-3 inhibitors as off-family protease, SAR follow-up, selectivity assay for SENP protease inhibitor project, biochemical, luminescence, set 2 (AID 588599). The experiment is classed as functional.

For experiment [3], the target named is T1, Sentrin-specific protease 8. Nature of the experiment: SENP8 protease inhibitors, SAR follow-up, biochemical, luminescence, set 2 (AID 588601). The experiment is classed as functional.
For experiment [4], the target named is T2, Caspase-3. Kind of experiment: SAR Analysis of small molecule inhibitors of Sentrin-specific proteases (SENPs) using a Caspase-3 Selectivity assay. [Related pubchem assays (depositor defined):AID2540, AID2599, AID434973, AID489001]. The experiment is classed as functional.
For experiment [5], the target named is T3, Sentrin-specific protease 7 (Homo sapiens, UniProt Q9BQF6).
T3 sequence (Q9BQF6 whole entry): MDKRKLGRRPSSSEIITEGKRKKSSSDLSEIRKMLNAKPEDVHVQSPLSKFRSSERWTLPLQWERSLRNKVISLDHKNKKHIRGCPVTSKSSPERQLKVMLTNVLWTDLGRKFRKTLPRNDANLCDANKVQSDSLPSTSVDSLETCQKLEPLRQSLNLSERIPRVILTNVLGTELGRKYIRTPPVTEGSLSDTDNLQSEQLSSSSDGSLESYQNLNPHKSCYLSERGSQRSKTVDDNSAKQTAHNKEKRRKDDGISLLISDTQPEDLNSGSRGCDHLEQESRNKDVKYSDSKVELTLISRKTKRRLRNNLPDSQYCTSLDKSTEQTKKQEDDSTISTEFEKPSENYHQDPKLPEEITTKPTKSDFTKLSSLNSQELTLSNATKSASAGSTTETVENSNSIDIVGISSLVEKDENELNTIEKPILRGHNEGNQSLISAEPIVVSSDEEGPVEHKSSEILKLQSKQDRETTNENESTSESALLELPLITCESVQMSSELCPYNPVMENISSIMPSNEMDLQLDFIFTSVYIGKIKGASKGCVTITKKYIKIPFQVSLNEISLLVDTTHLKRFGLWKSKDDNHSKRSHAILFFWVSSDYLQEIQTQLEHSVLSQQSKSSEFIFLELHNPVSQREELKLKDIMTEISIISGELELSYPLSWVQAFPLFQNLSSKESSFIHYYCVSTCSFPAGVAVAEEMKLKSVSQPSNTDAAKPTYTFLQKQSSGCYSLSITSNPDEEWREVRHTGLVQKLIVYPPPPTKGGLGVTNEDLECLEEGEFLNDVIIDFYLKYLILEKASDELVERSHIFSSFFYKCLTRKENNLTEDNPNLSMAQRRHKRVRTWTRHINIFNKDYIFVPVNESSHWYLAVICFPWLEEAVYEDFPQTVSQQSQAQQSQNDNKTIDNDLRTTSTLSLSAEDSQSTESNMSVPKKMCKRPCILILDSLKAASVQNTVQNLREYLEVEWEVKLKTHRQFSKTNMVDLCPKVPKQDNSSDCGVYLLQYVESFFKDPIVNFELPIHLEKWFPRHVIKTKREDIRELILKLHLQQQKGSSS
Nature of the experiment: SENP7 protease inhibitors, SAR follow-up, biochemical, luminescence, set 2 (AID 588600). The experiment is classed as functional.

Experiment [6] addresses T4, Sentrin-specific protease 6 (Homo sapiens, UniProt Q9GZR1).
T4 sequence (Q9GZR1 whole entry): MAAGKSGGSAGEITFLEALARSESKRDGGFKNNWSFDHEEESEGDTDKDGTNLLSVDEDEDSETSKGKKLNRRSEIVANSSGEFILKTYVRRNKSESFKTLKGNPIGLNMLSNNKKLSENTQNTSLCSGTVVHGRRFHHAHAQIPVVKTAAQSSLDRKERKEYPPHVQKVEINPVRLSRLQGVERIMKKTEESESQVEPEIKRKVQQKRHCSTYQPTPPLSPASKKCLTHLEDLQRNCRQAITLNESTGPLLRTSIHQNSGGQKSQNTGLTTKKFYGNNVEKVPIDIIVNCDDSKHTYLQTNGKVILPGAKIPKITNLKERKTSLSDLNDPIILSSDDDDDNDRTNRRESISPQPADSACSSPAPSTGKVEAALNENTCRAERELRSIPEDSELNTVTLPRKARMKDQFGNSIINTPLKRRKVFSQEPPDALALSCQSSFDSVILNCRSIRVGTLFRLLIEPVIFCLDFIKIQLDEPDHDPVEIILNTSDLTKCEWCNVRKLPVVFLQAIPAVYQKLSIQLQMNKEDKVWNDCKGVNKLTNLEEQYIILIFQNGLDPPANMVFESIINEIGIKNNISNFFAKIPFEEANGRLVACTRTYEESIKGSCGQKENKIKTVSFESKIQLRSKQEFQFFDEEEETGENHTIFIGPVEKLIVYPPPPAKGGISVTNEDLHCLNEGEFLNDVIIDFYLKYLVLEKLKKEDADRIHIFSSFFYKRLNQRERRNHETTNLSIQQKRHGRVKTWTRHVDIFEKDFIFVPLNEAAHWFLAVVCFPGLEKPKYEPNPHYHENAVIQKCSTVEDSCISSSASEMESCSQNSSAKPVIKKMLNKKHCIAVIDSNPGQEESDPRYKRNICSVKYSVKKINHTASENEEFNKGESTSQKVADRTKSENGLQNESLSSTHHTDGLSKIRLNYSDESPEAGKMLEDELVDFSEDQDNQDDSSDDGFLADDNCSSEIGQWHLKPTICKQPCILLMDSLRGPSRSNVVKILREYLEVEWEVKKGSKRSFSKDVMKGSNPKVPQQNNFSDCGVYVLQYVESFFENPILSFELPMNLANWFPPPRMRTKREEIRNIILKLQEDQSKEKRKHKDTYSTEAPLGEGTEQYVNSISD
Nature of the experiment: SAR Analysis of small molecule inhibitors of Sentrin-specific protease 6 (SENP6) using a Luminescent assay. [Related pubchem assays (depositor defined):AID2582, AID2599]. The class given is functional.

Experiment [7] has as its target T4, Sentrin-specific protease 6. Kind of experiment: SENP6 protease inhibitors, SAR follow-up, biochemical, luminescence, set 2 (AID 588598). The experiment is classed as functional.
In experiment [8] the target is T3, Sentrin-specific protease 7. Nature of the experiment: SENP7 protease inhibitors, SAR follow-up, biochemical, luminescence (AID 504497). The class given is functional.
The target in experiment [9] is T5, Insulin-degrading enzyme (Homo sapiens, UniProt P14735).
T5 sequence (P14735 whole entry): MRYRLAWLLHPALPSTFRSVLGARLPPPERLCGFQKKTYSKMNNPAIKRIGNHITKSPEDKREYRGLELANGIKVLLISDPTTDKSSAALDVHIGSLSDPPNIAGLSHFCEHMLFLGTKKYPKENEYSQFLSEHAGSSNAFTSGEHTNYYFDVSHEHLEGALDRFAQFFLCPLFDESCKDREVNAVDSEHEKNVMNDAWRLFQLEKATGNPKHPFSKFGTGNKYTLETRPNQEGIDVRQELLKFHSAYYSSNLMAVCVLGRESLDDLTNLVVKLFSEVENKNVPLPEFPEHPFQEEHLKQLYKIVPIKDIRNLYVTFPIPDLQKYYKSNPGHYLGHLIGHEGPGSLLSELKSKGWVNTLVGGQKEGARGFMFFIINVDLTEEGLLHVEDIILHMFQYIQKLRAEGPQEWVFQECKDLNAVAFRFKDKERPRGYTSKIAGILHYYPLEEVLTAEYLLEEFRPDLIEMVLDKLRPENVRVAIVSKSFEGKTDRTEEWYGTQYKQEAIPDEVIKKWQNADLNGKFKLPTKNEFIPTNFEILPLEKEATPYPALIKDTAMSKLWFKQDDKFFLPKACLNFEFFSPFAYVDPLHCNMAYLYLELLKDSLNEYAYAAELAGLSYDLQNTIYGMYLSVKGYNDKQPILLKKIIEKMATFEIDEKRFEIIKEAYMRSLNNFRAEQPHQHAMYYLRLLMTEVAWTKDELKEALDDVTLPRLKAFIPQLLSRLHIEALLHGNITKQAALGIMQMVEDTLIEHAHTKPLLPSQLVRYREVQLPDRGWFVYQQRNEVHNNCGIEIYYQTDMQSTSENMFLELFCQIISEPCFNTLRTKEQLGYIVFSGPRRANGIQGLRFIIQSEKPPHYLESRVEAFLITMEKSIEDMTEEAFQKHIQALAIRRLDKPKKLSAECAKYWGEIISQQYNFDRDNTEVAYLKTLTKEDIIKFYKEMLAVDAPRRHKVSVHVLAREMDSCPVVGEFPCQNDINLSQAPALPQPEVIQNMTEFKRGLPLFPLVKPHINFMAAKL
Kind of experiment: activators of recombinant IDE enzyme, dose response, counter-screen for IDE activator project, biochemical, fluorescence polarization (AID 588681).

The target of experiment [10] is T5, Insulin-degrading enzyme. Nature of the experiment: activators of endogenous IDE in HEK cells, dose response, cell-based, fluorescence polarization (AID 588439). The experiment is classed as functional.
The test system of experiment [11] is HEK293. Kind of experiment: HEK cell cytotoxicity by LDH release, dose response, cytotoxicity control for IDE activator project, fluorescence, HEK cells (AID 588440).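 Note: cytotoxicity by LDH release measuring loss of membrane integrity.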 The class given is functional, cell-based. As to conditions: Homo sapiens.
For experiment [12], the system named is HEK293. Nature of the experiment: optical interference in Abeta FP readout, dose response, artefact control for IDE activator project, biochemical, fluorescence polarization (AID 588442). The experiment is classed as functional, cell-based. As to conditions: Homo sapiens.

Active and inactive are the calls of the source. Cut-off read from the data, not from the text of the source, for most assays here: actives have a measured IC50 and inactives only a lower limit.

For the compound `Oc1ccccc1-c1nc(/C=C/c2ccccc2Cl)no1`, the concentration for half-maximal inhibition (IC50) in experiment [1] was 1.2 µM (active); on Caspase-3 [2] it was 1.44 µM (active); in [3], 1.29 µM (active); at Caspase-3 [4], 1.2 µM (active); in [5], 1.36 µM (active); in [6], 1.2 µM (active). The IC50 was 1.35 µM (active) in experiment [7] and 1 µM (active) in [8].

Take `CC(C)CN1CCC(=O)N([C@H](CO)c2ccccc2)CC1`: the EC50 on Insulin-degrading enzyme [9], on Insulin-degrading enzyme [10] and in the experiment on HEK293 [12] was > 54.7 µM (inactive) each time. Also, in the experiment with HEK293 [11], the IC50 is > 89.3 µM (inactive).
